Laboratory results reported in patent US12618095B2, “Medium for Bacillus cereus group detection” (SHIMADZU DIAGNOSTICS CORPORATION, priority 2020, dated 2026).

What was measured:
Experiment in all cases: Test Example 10: agar medium with aztreonam or ceftazidime
E. coli = assay type: cell-based; conditions: 22 hours; for Number of colonies: ATCC8739
B. cereus = conditions: 22 hours
E. amnigenus = conditions: 22 hours; for Number of colonies: ATCC33072
B. thuringiensis = conditions: NBRC101235, 22 hours

C[C@H]1[C@H](NC(=O)/C(=N\OC(C)(C)C(=O)O)c2csc(N)n2)C(=O)N1S(=O)(=O)O [aztreonam]
Number of colonies (E. coli; Aztreonam 0.05 mg, 10^1 cfu/mL): − | Number of colonies (E. coli; Aztreonam 0.05 mg, 10^2 cfu/mL): − | Number of colonies (E. coli; Aztreonam 0.05 mg, 10^3 cfu/mL): − | Number of colonies (E. coli; Aztreonam 0.05 mg, 10^4 cfu/mL): − | Number of colonies (E. coli; Aztreonam 0.05 mg, 10^5 cfu/mL): − | Number of colonies (E. coli; Aztreonam 0.5 mg, 10^1 cfu/mL): − | Number of colonies (E. coli; Aztreonam 0.5 mg, 10^2 cfu/mL): − | Number of colonies (E. coli; Aztreonam 0.5 mg, 10^3 cfu/mL): − | Number of colonies (E. coli; Aztreonam 0.5 mg, 10^4 cfu/mL): − | Number of colonies (E. coli; Aztreonam 0.5 mg, 10^5 cfu/mL): − | Number of colonies (E. coli; Aztreonam 5 mg, 10^1 cfu/mL): − | Number of colonies (E. coli; Aztreonam 5 mg, 10^2 cfu/mL): − | Number of colonies (E. coli; Aztreonam 5 mg, 10^3 cfu/mL): − | Number of colonies (E. coli; Aztreonam 5 mg, 10^4 cfu/mL): − | Number of colonies (E. coli; Aztreonam 5 mg, 10^5 cfu/mL): − | formation of a white colony (E. coli; added to TSA-BC, 30° C.): suppressed | Number of colonies (B. cereus; ATCC11778, Aztreonam 0.05 mg, 10^1 cfu/mL): 1 | Number of colonies (B. cereus; ATCC11778, Aztreonam 0.05 mg, 10^2 cfu/mL): 13 | Number of colonies (B. cereus; ATCC11778, Aztreonam 0.05 mg, 10^3 cfu/mL): + | Number of colonies (B. cereus; ATCC11778, Aztreonam 0.05 mg, 10^4 cfu/mL): + | Number of colonies (B. cereus; ATCC11778, Aztreonam 0.05 mg, 10^5 cfu/mL): + | Number of colonies (B. cereus; ATCC11778, Aztreonam 0.5 mg, 10^1 cfu/mL): 1 | Number of colonies (B. cereus; ATCC11778, Aztreonam 0.5 mg, 10^2 cfu/mL): 12 | Number of colonies (B. cereus; ATCC11778, Aztreonam 0.5 mg, 10^3 cfu/mL): + | Number of colonies (B. cereus; ATCC11778, Aztreonam 0.5 mg, 10^4 cfu/mL): + | Number of colonies (B. cereus; ATCC11778, Aztreonam 0.5 mg, 10^5 cfu/mL): + | Number of colonies (B. cereus; ATCC11778, Aztreonam 5 mg, 10^1 cfu/mL): 2 | Number of colonies (B. cereus; ATCC11778, Aztreonam 5 mg, 10^2 cfu/mL): 17 | Number of colonies (B. cereus; ATCC11778, Aztreonam 5 mg, 10^3 cfu/mL): + | Number of colonies (B. cereus; ATCC11778, Aztreonam 5 mg, 10^4 cfu/mL): + | Number of colonies (B. cereus; ATCC11778, Aztreonam 5 mg, 10^5 cfu/mL): + | Number of colonies (B. cereus; ATCC19637, Aztreonam 0.05 mg, 10^1 cfu/mL): 3 | Number of colonies (B. cereus; ATCC19637, Aztreonam 0.05 mg, 10^2 cfu/mL): 2 | Number of colonies (B. cereus; ATCC19637, Aztreonam 0.05 mg, 10^3 cfu/mL): + | Number of colonies (B. cereus; ATCC19637, Aztreonam 0.05 mg, 10^4 cfu/mL): + | Number of colonies (B. cereus; ATCC19637, Aztreonam 0.05 mg, 10^5 cfu/mL): + | Number of colonies (B. cereus; ATCC19637, Aztreonam 0.5 mg, 10^1 cfu/mL): 1 | Number of colonies (B. cereus; ATCC19637, Aztreonam 0.5 mg, 10^2 cfu/mL): 10 | Number of colonies (B. cereus; ATCC19637, Aztreonam 0.5 mg, 10^3 cfu/mL): + | Number of colonies (B. cereus; ATCC19637, Aztreonam 0.5 mg, 10^4 cfu/mL): + | Number of colonies (B. cereus; ATCC19637, Aztreonam 0.5 mg, 10^5 cfu/mL): + | Number of colonies (B. cereus; ATCC19637, Aztreonam 5 mg, 10^1 cfu/mL): 1 | Number of colonies (B. cereus; ATCC19637, Aztreonam 5 mg, 10^2 cfu/mL): 5 | Number of colonies (B. cereus; ATCC19637, Aztreonam 5 mg, 10^3 cfu/mL): + | Number of colonies (B. cereus; ATCC19637, Aztreonam 5 mg, 10^4 cfu/mL): + | Number of colonies (B. cereus; ATCC19637, Aztreonam 5 mg, 10^5 cfu/mL): + | Number of colonies (E. amnigenus; Aztreonam 0.05 mg, 10^1 cfu/mL): − | Number of colonies (E. amnigenus; Aztreonam 0.05 mg, 10^2 cfu/mL): − | Number of colonies (E. amnigenus; Aztreonam 0.05 mg, 10^3 cfu/mL): − | Number of colonies (E. amnigenus; Aztreonam 0.05 mg, 10^4 cfu/mL): − | Number of colonies (E. amnigenus; Aztreonam 0.05 mg, 10^5 cfu/mL): 2 | Number of colonies (E. amnigenus; Aztreonam 0.5 mg, 10^1 cfu/mL): − | Number of colonies (E. amnigenus; Aztreonam 0.5 mg, 10^2 cfu/mL): − | Number of colonies (E. amnigenus; Aztreonam 0.5 mg, 10^3 cfu/mL): − | Number of colonies (E. amnigenus; Aztreonam 0.5 mg, 10^4 cfu/mL): − | Number of colonies (E. amnigenus; Aztreonam 0.5 mg, 10^5 cfu/mL): − | Number of colonies (E. amnigenus; Aztreonam 5 mg, 10^1 cfu/mL): − | Number of colonies (E. amnigenus; Aztreonam 5 mg, 10^2 cfu/mL): − | Number of colonies (E. amnigenus; Aztreonam 5 mg, 10^3 cfu/mL): − | Number of colonies (E. amnigenus; Aztreonam 5 mg, 10^4 cfu/mL): − | Number of colonies (E. amnigenus; Aztreonam 5 mg, 10^5 cfu/mL): − | formation of a white colony (E. amnigenus; added to TSA-BC, 30° C.): suppressed | Number of colonies (B. thuringiensis; Aztreonam 0.05 mg, 10^1 cfu/mL): 3 | Number of colonies (B. thuringiensis; Aztreonam 0.05 mg, 10^2 cfu/mL): 16 | Number of colonies (B. thuringiensis; Aztreonam 0.05 mg, 10^3 cfu/mL): + | Number of colonies (B. thuringiensis; Aztreonam 0.05 mg, 10^4 cfu/mL): + | Number of colonies (B. thuringiensis; Aztreonam 0.05 mg, 10^5 cfu/mL): + | Number of colonies (B. thuringiensis; Aztreonam 0.5 mg, 10^1 cfu/mL): 1 | Number of colonies (B. thuringiensis; Aztreonam 0.5 mg, 10^2 cfu/mL): 13 | Number of colonies (B. thuringiensis; Aztreonam 0.5 mg, 10^3 cfu/mL): + | Number of colonies (B. thuringiensis; Aztreonam 0.5 mg, 10^4 cfu/mL): + | Number of colonies (B. thuringiensis; Aztreonam 0.5 mg, 10^5 cfu/mL): + | Number of colonies (B. thuringiensis; Aztreonam 5 mg, 10^1 cfu/mL): 2 | Number of colonies (B. thuringiensis; Aztreonam 5 mg, 10^2 cfu/mL): 16 | Number of colonies (B. thuringiensis; Aztreonam 5 mg, 10^3 cfu/mL): + | Number of colonies (B. thuringiensis; Aztreonam 5 mg, 10^4 cfu/mL): + | Number of colonies (B. thuringiensis; Aztreonam 5 mg, 10^5 cfu/mL): +
